{"source": "patent US20240132431A1", "about": "“METHOD FOR ALKYLATING ACIDIC FUNCTIONAL GROUP” (Chugai Seiyaku Kabushiki Kaisha, priority 2021, published 2024)", "target": "T1, Bcl-2 protein (Recombinant Human Bcl-2 Protein) (Homo sapiens, UniProt P10415)", "T1 construct": "purchased Novus NBP2-34889", "T1 sequence (P10415 whole entry)": "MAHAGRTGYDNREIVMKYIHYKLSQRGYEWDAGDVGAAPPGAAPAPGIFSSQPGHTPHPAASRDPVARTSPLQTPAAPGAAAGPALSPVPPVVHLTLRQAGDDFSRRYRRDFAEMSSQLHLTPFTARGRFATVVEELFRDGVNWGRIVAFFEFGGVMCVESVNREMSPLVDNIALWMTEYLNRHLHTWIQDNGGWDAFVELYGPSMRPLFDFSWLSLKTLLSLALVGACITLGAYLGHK", "experiment": "Binding evaluation of mixture library compounds to Bcl-2 using AS-MS (affinity selection mass spectrometry)", "details": "AS-MS on the mixture of 1200 library compounds, ASMS Ratio(%)=(A−C)/B×100; for ASMS ratio (%) n = 1: replicate n = 1; for ASMS ratio (%) n = 2: replicate n = 2", "in_short": "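Affinity selection MS: Bcl-2 20 μM + 1200-cpd mixture, […]/cpd, Tris pH 7.4 buffer w/ Tween-20, DTT; 1 h 23° C dark; P-2 spin SEC; MeCN/MeOH extraction; RP LC/MS. ASMS Ratio(%) = (A−C)/B×100.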", "data": [{"compound": "CCOc1cccc(-c2ccc(C(=O)N3CCN(c4ccc(C(=O)Nc5ccc(OC)cc5)cc4)CC3)cc2F)c1", "note": "[B1O027-01, 4-[4-[4-(3-Ethoxyphenyl)-3-fluorobenzoyl]piperazin-1-yl]-N-(4-methoxyphenyl)benzamide]", "values": [{"measurement": "ASMS ratio (%) n = 1", "value": 3.8, "unit": "%"}, {"measurement": "ASMS ratio (%) n = 2", "value": 2.1, "unit": "%"}]}, {"compound": "CCOc1cncc(-c2ccc(C(=O)N3CCN(c4ccc(C(=O)Nc5ccc(OC)cc5)cc4)CC3)cc2F)c1", "note": "[B1O028-01, 4-[4-[4-(5-Ethoxypyridin-3-yl)-3-fluorobenzoyl]piperazin-1-yl]-N-(4-methoxyphenyl)benzamide]", "values": [{"measurement": "ASMS ratio (%) n = 1", "value": 4.9, "unit": "%"}, {"measurement": "ASMS ratio (%) n = 2", "value": 0.4, "unit": "%"}]}, {"compound": "CCOc1cccc(C#Cc2ccccc2C(=O)N2CCN(c3ccc(C(=O)Nc4ccc(OC)cc4)cc3)CC2)c1", "note": "[B1O029-01, 4-[4-[2-[2-(3-Ethoxyphenyl)ethynyl]benzoyl]piperazin-1-yl]-N-(4-methoxyphenyl)benzamide]", "values": [{"measurement": "ASMS ratio (%) n = 1", "value": 0.0, "unit": "%"}, {"measurement": "ASMS ratio (%) n = 2", "value": 0.0, "unit": "%"}]}, {"compound": "CCOc1cncc(C#Cc2ccccc2C(=O)N2CCN(c3ccc(C(=O)Nc4ccc(OC)cc4)cc3)CC2)c1", "note": "[B1O030-01, 4-[4-[2-[2-(5-Ethoxypyridin-3-yl)ethynyl]benzoyl]piperazin-1-yl]-N-(4-methoxyphenyl)benzamide]", "values": [{"measurement": "ASMS ratio (%) n = 1", "value": 1.8, "unit": "%"}, {"measurement": "ASMS ratio (%) n = 2", "value": "−2.0", "unit": "%"}]}, {"compound": "CCOc1cccc(C#Cc2cncc(C(=O)N3CCN(c4ccc(C(=O)Nc5ccc(OC)cc5)cc4)CC3)c2)c1", "note": "[B1O031-01, 4-[4-[5-[2-(3-Ethoxyphenyl)ethynyl]pyridine-3-carbonyl]piperazin-1-yl]-N-(4-methoxyphenyl)benzamide]", "values": [{"measurement": "ASMS ratio (%) n = 1", "value": "−1.3", "unit": "%"}, {"measurement": "ASMS ratio (%) n = 2", "value": "−4.1", "unit": "%"}]}, {"compound": "CCOc1cncc(C#Cc2cncc(C(=O)N3CCN(c4ccc(C(=O)Nc5ccc(OC)cc5)cc4)CC3)c2)c1", "note": "[B1O032-01, 4-[4-[5-[2-(5-Ethoxypyridin-3-yl)ethynyl]pyridine-3-carbonyl]piperazin-1-yl]-N-(4-methoxyphenyl)benzamide]", "values": [{"measurement": "ASMS ratio (%) n = 1", "value": 4.5, "unit": "%"}, {"measurement": "ASMS ratio (%) n = 2", "value": 0.9, "unit": "%"}]}, {"compound": "CCOc1cccc(-c2ccccc2CCC(=O)N2CCN(c3ccc(C(=O)Nc4ccc(OC)cc4)cc3)CC2)c1", "note": "[B1O033-01, 4-[4-[3-[2-(3-Ethoxyphenyl)phenyl]propanoyl]piperazin-1-yl]-N-(4-methoxyphenyl)benzamide]", "values": [{"measurement": "ASMS ratio (%) n = 1", "value": 1.9, "unit": "%"}, {"measurement": "ASMS ratio (%) n = 2", "value": 4.2, "unit": "%"}]}, {"compound": "CCOc1cncc(-c2ccccc2CCC(=O)N2CCN(c3ccc(C(=O)Nc4ccc(OC)cc4)cc3)CC2)c1", "note": "[B1O034-01, 4-[4-[3-[2-(5-Ethoxypyridin-3-yl)phenyl]propanoyl]piperazin-1-yl]-N-(4-methoxyphenyl)benzamide]", "values": [{"measurement": "ASMS ratio (%) n = 1", "value": 0.1, "unit": "%"}, {"measurement": "ASMS ratio (%) n = 2", "value": 0.2, "unit": "%"}]}, {"compound": "CCOc1cccc(-c2ccc(C(=O)N3CCN(c4ccc(C(=O)Nc5ccc(OC)cc5)cc4)CC3)c3ccccc23)c1", "note": "[B1O035-01, 4-[4-[4-(3-Ethoxyphenyl)naphthalene-1-carbonyl]piperazin-1-yl]-N-(4-methoxyphenyl)benzamide]", "values": [{"measurement": "ASMS ratio (%) n = 1", "value": 4.3, "unit": "%"}, {"measurement": "ASMS ratio (%) n = 2", "value": "−3.7", "unit": "%"}]}, {"compound": "CCOc1cncc(-c2ccc(C(=O)N3CCN(c4ccc(C(=O)Nc5ccc(OC)cc5)cc4)CC3)c3ccccc23)c1", "note": "[B1O036-01, 4-[4-[4-(5-Ethoxypyridin-3-yl)naphthalene-1-carbonyl]piperazin-1-yl]-N-(4-methoxyphenyl)benzamide]", "values": [{"measurement": "ASMS ratio (%) n = 1", "value": 4.8, "unit": "%"}, {"measurement": "ASMS ratio (%) n = 2", "value": 0.9, "unit": "%"}]}, {"compound": "CCOc1cccc(-c2cc(C(=O)N3CCN(c4ccc(C(=O)Nc5ccc(OC)cc5)cc4)CC3)cc(C(C)(C)C)c2)c1", "note": "[B1O037-01, 4-[4-[3-tert-Butyl-5-(3-ethoxyphenyl)benzoyl]piperazin-1-yl]-N-(4-methoxyphenyl)benzamide]", "values": [{"measurement": "ASMS ratio (%) n = 1", "value": 4.7, "unit": "%"}, {"measurement": "ASMS ratio (%) n = 2", "value": "−1.7", "unit": "%"}]}, {"compound": "CCOc1cncc(-c2cc(C(=O)N3CCN(c4ccc(C(=O)Nc5ccc(OC)cc5)cc4)CC3)cc(C(C)(C)C)c2)c1", "note": "[B1O038-01, 4-[4-[3-tert-Butyl-5-(5-ethoxypyridin-3-yl)benzoyl]piperazin-1-yl]-N-(4-methoxyphenyl)benzamide]", "values": [{"measurement": "ASMS ratio (%) n = 1", "value": 2.8, "unit": "%"}, {"measurement": "ASMS ratio (%) n = 2", "value": "−0.7", "unit": "%"}]}, {"compound": "CCOc1cccc(-c2cc(C(=O)N3CCN(c4ccc(C(=O)Nc5ccc(OC)cc5)cc4)CC3)cc(C(F)(F)F)c2)c1", "note": "[B1O039-01, 4-[4-[3-(3-Ethoxyphenyl)-5-(trifluoromethyl)benzoyl]piperazin-1-yl]-N-(4-methoxyphenyl)benzamide]", "values": [{"measurement": "ASMS ratio (%) n = 1", "value": 5.1, "unit": "%"}, {"measurement": "ASMS ratio (%) n = 2", "value": 0.2, "unit": "%"}]}, {"compound": "CCOc1cncc(-c2cc(C(=O)N3CCN(c4ccc(C(=O)Nc5ccc(OC)cc5)cc4)CC3)cc(C(F)(F)F)c2)c1", "note": "[B1O040-01, 4-[4-[3-(5-Ethoxypyridin-3-yl)-5-(trifluoromethyl)benzoyl]piperazin-1-yl]-N-(4-methoxyphenyl)benzamide]", "values": [{"measurement": "ASMS ratio (%) n = 1", "value": 1.8, "unit": "%"}, {"measurement": "ASMS ratio (%) n = 2", "value": 0.3, "unit": "%"}]}, {"compound": "CCOc1cccc(C#Cc2cc(C(=O)N3CCN(c4ccc(C(=O)Nc5ccc(OC)cc5)cc4)CC3)cc(C(F)(F)F)c2)c1", "note": "[B1O041-01, 4-[4-[3-[2-(3-Ethoxyphenyl)ethynyl]-5-(trifluoromethyl)benzoyl]piperazin-1-yl]-N-(4-methoxyphenyl)benzamide]", "values": [{"measurement": "ASMS ratio (%) n = 1", "value": 10.4, "unit": "%"}, {"measurement": "ASMS ratio (%) n = 2", "value": "−2.8", "unit": "%"}]}, {"compound": "CCOc1cncc(C#Cc2cc(C(=O)N3CCN(c4ccc(C(=O)Nc5ccc(OC)cc5)cc4)CC3)cc(C(F)(F)F)c2)c1", "note": "[B1O042-01, 4-[4-[3-[2-(5-Ethoxypyridin-3-yl)ethynyl]-5-(trifluoromethyl)benzoyl]piperazin-1-yl]-N-(4-methoxyphenyl)benzamide]", "values": [{"measurement": "ASMS ratio (%) n = 1", "value": 2.8, "unit": "%"}, {"measurement": "ASMS ratio (%) n = 2", "value": 2.1, "unit": "%"}]}, {"compound": "CCOc1cccc(-c2cnn(-c3cc(C(=O)N4CCN(c5ccc(C(=O)Nc6ccc(OC)cc6)cc5)CC4)cc(C(F)(F)F)c3)c2)c1", "note": "[B1O043-01, 4-[4-[3-[4-(3-Ethoxyphenyl)pyrazol-1-yl]-5-(trifluoromethyl)benzoyl]piperazin-1-yl]-N-(4-methoxyphenyl)benzamide]", "values": [{"measurement": "ASMS ratio (%) n = 1", "value": 2.2, "unit": "%"}, {"measurement": "ASMS ratio (%) n = 2", "value": "−5.0", "unit": "%"}]}, {"compound": "CCOc1cncc(-c2cnn(-c3cc(C(=O)N4CCN(c5ccc(C(=O)Nc6ccc(OC)cc6)cc5)CC4)cc(C(F)(F)F)c3)c2)c1", "note": "[B1O044-01, 4-[4-[3-[4-(5-Ethoxypyridin-3-yl)pyrazol-1-yl]-5-(trifluoromethyl)benzoyl]piperazin-1-yl]-N-(4-methoxyphenyl)benzamide]", "values": [{"measurement": "ASMS ratio (%) n = 1", "value": 5.8, "unit": "%"}, {"measurement": "ASMS ratio (%) n = 2", "value": 0.4, "unit": "%"}]}, {"compound": "CCOc1cccc(-c2ccccc2CN2CCN(c3ccc(C(=O)Nc4ccc(OC)cc4)cc3)CC2)c1", "note": "[B1O045-01, 4-[4-[[2-(3-Ethoxyphenyl)phenyl]methyl]piperazin-1-yl]-N-(4-methoxyphenyl)benzamide]", "values": [{"measurement": "ASMS ratio (%) n = 1", "value": 0.0, "unit": "%"}, {"measurement": "ASMS ratio (%) n = 2", "value": 0.0, "unit": "%"}]}, {"compound": "CCOc1cncc(-c2ccccc2CN2CCN(c3ccc(C(=O)Nc4ccc(OC)cc4)cc3)CC2)c1", "note": "[B1O046-01, 4-[4-[[2-(5-Ethoxypyridin-3-yl)phenyl]methyl]piperazin-1-yl]-N-(4-methoxyphenyl)benzamide]", "values": [{"measurement": "ASMS ratio (%) n = 1", "value": 0.6, "unit": "%"}, {"measurement": "ASMS ratio (%) n = 2", "value": 1.3, "unit": "%"}]}, {"compound": "CCOc1cccc(-c2ccc(CN3CCN(c4ccc(C(=O)Nc5ccc(OC)cc5)cc4)CC3)cc2C)c1", "note": "[B1O047-01, 4-[4-[[4-(3-Ethoxyphenyl)-3-methylphenyl]methyl]piperazin-1-yl]-N-(4-methoxyphenyl)benzamide]", "values": [{"measurement": "ASMS ratio (%) n = 1", "value": 4.1, "unit": "%"}, {"measurement": "ASMS ratio (%) n = 2", "value": 1.5, "unit": "%"}]}]}
